Experimental data from ChEMBL document CHEMBL1138401, “Novel nucleotide triphosphates as potent P2Y2 agonists with enhanced stability over UTP” (Bioorg Med Chem Lett, 2007).

Key:
P2Y purinoceptor 2 = P2Y purinoceptor 2 (Homo sapiens, UniProt P41231); experiment: Agonist activity at human P2Y2 receptor expressed in human 1321N1 by FLIPR assay; format: functional
[1] = Agonist activity at human cloned P2Y6 receptor expressed in human 1321N1 by FLIPR assay; format: functional
P2Y purinoceptor 4 = P2Y purinoceptor 4 (Homo sapiens, UniProt P51582); experiment: Agonist activity at human cloned P2Y4 receptor expressed in human 1321N1 by FLIPR assay; format: functional
P2Y purinoceptor 1 = P2Y purinoceptor 1 (Homo sapiens, UniProt P47900); experiment: Agonist activity at human cloned P2Y1 receptor expressed in human 1321N1 by FLIPR assay; format: functional
[2] = Metabolic stability in human bronchial epithelial cells after 120 mins; format: ADME, cell-based, Epithelial cell; conditions: read-out: Stability
[3] = Metabolic stability in human bronchial epithelial cells after 180 mins; format: ADME, cell-based, Epithelial cell; conditions: read-out: Stability

P2Y purinoceptor 2, sequence (P41231 whole entry): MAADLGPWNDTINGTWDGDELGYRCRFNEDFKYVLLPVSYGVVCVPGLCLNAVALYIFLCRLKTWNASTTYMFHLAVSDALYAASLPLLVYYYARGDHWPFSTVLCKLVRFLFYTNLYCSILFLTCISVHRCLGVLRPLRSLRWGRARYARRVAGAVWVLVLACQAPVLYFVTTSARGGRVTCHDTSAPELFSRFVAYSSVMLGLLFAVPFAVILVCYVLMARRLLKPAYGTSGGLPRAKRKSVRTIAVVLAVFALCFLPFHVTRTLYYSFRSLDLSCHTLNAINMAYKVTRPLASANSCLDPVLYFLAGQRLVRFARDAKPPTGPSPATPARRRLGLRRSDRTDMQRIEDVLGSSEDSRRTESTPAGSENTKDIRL
P2Y purinoceptor 1, sequence (P47900 whole entry): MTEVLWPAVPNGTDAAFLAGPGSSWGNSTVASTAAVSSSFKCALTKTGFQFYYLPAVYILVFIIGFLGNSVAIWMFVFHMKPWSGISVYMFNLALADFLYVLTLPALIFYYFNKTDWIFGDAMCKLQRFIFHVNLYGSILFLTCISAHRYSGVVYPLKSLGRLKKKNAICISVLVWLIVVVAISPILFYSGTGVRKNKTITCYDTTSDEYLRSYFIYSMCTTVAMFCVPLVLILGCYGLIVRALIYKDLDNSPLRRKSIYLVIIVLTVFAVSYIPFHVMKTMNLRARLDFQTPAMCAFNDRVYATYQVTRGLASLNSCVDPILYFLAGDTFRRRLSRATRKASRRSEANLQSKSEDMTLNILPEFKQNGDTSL
P2Y purinoceptor 4, sequence (P51582 whole entry): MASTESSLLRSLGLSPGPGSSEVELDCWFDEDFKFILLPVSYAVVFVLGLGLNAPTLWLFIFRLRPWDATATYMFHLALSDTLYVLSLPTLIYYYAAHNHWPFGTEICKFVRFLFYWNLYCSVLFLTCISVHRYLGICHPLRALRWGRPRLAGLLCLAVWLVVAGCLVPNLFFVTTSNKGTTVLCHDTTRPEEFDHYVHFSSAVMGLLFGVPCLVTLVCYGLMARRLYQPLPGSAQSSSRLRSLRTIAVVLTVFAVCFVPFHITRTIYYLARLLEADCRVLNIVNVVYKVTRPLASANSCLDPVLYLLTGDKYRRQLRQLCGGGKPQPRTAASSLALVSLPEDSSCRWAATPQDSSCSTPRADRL

| SMILES | EC50 (P2Y purinoceptor 2) | EC50 [1] | EC50 (P2Y purinoceptor 4) | EC50 (P2Y purinoceptor 1) | remaining at 2 h [2] | remaining at 3 h [3] |
| --- | --- | --- | --- | --- | --- | --- |
| Cn1c([C@@H]2O[C@H](COP(=O)(O)OP(=O)(O)OP(=O)(O)O)[C@@H](O)[C@H]2O)nc2ccccc21 | 200 nM | – | – | – | – | – |
| O=P(O)(O)OP(=O)(O)OP(=O)(O)OC[C@H]1O[C@@H](c2nc3c(F)cc(Cl)cc3s2)[C@H](O)[C@@H]1O | 7 nM | > 20000 nM | 4230 nM | > 20000 nM | – | – |
| O=P(O)(O)OP(=O)(O)OP(=O)(O)OC[C@H]1O[C@@H](c2nc3ccc(Cl)cc3s2)[C@H](O)[C@@H]1O | 8 nM | – | – | – | – | – |
| O=c1c2cc(F)ccc2ccn1[C@@H]1O[C@H](COP(=O)(O)OP(=O)(O)OP(=O)(O)O)[C@@H](O)[C@H]1O | – | – | – | – | 70% | 50% |
| COc1ccc2nc([C@@H]3O[C@H](COP(=O)(O)OP(=O)(O)OP(=O)(O)O)[C@@H](O)[C@H]3O)sc2c1 | 42 nM | – | – | – | – | – |
| O=c1ccn([C@@H]2O[C@H](COP(=O)(O)OP(=O)(O)OP(=O)(O)O)[C@@H](O)[C@H]2O)c(=O)[nH]1 [URIDINE TRIPHOSPHATE] | – | 424 nM | – | > 2000 nM | – | – |
| O=P(O)(O)OP(=O)(O)OP(=O)(O)OC[C@H]1O[C@@H](c2nc3cc(F)ccc3s2)[C@H](O)[C@@H]1O | 3 nM | – | – | – | – | – |
| COc1cccc2sc([C@@H]3O[C@H](COP(=O)(O)OP(=O)(O)OP(=O)(O)O)[C@@H](O)[C@H]3O)nc12 | 700 nM | – | – | – | – | – |
| O=P(O)(O)OP(=O)(O)OP(=O)(O)OC[C@H]1O[C@@H](c2nc3cc(C(F)(F)F)ccc3s2)[C@H](O)[C@@H]1O | 10 nM | > 20000 nM | > 20000 nM | > 20000 nM | – | – |
| O=P(O)(O)OP(=O)(O)OP(=O)(O)OC[C@H]1O[C@@H](c2nc3ccccc3s2)[C@H](O)[C@@H]1O | 22 nM | > 20000 nM | 4120 nM | > 20000 nM | 50% | 20% |
| Cc1ccc2oc([C@@H]3O[C@H](COP(=O)(O)OP(=O)(O)OP(=O)(O)O)[C@@H](O)[C@H]3O)nc2c1 | 390 nM | – | – | – | – | – |
